Test results from PubChem BioAssay AID1963434 (Molecular Pharmacology Branch, DTP, NCI, 2024).

Tested on: 755483-174-R-J1-PDC complex spheroid growth, percent test/control
Assay: Anticancer human tumor 755483-174-R-J1-PDC patient-derived rhabdomyosarcoma cell line growth inhibition [Asc]
Settings: for IC50: curve of first compound; for viability, T/C: stronger effect = lower value
Description: Multicellular complex tumor spheroid response to apoptosis pathway targeting inhibitors Alrizomadlin, Pelcitoclax, and Dasminapant in combination with a variety of drugs and investigational agents in selected tumor cell lines
The MDM2 inhibitor alrizomadlin, the Bcl-2/Bcl-xL inhibitor pelcitoclax, and the IAPs inhibitor dasminapant were evaluated both individually and in combination with standard of care and investigational anticancer small molecules within a complex spheroid model of solid tumors. . Complex spheroids include a stromal component modeled by human endothelial cells (HUVEC) and fibroblasts modeled by human mesenchymal stem cells (MSCs). The concentration ranges selected for each drug and investigational agent were based upon clinically achievable concentrations if the clinical Cmax of the agent was known.
Compounds. The drugs and investigational agents: alrizomadlin (APG-115; NSC831270), pelcitoclax (APG-1252; NSC835773), dasminapant (APG-1387;NSC834197), TAK-243 (NSC785004), copanlisib (NSC809693), olaparib (NSC753686), talazoparib (NSC767125), cobimetinib (NSC 768068), eltanexor (KPT-8602, NSC 794443), abemaciclib (NSC 768073), sotorasib (NSC818433), adagrasib (NSC 831453), MRTX-1133 (NSC 836407), Iadademestat (ORY1001, NSC 806812), and RMC-4630 (NSC839698), were obtained from the NCI Developmental Therapeutics Program Chemical Repository. The FDA-approved anticancer drug set is available from the Developmental Therapeutics Program at https://dtp.cancer.gov/organization/dscb/obtaining/available plates.htm. […] The stock solutions were prepared in dimethyl sulfoxide (DMSO, Sigma-Aldrich, St. Louis, MO, cat. D2650) at 800-fold the tested concentration and stored at -70 degrees C prior to their use. All drugs and investigational agents were tested over a range starting from a high concentration at or near the clinical Cmax and decreasing in half-log increments. If the clinical Cmax for an agent had not been determined, the highest concentration tested was 10 microM.
The patient-derived cancer (PDC) cell lines include five colon adenocarcinomas: 186277-243-T-J2-PDC, 616215-338-R-J1-PDC, 439559-082-T-J2-PDC, 463943-066-T-J2-PDC, and 519858-162-T-J1-PDC; three pancreatic carcinomas: 323965-272-R-J2-PDC, 521955-158-R6-J3-PDC, and 521955-158-R2-J5-PDC; two uterine sarcomas: 327498-152-R-J2-PDC and 993429-296-R-J1-PDC; two rhabdomyosarcomas: 755483-174-R-J1-PDC and 772245-204-R-J1-PDC; two soft tissue sarcomas: 126254-015-R-J1-PDC and 494315-158-R-J1-PDC; two malignant fibrous histiocytomas: 317291-083-R-J1-PDC and 596521-263-R-J1-PDC; two breast carcinomas: 171881-019-R-J1-PDC and 885512-296-R-J2-PDC; and one ovarian carcinoma: 6556581-035-R-J-PDC were obtained from the NCI PDMR, (https://pdmr.cancer.gov). The established cell lines HSSY-2 synovial sarcoma (RRID:CVCL 8719), SYO-1 synovial sarcoma (RRID:CVCL_7146), MPNST malignant peripheral neural sheath tumor were obtained from the Sloan Kettering Institute. The following established cell lines were purchased from the American Type Culture Collection (ATCC, Manassas, VA), Sor the received from the NCI repository:, PANC-1 pancreatic carcinoma (CRL-1469, RRID:CVCL_0480), OVCAR-5 ovarian carcinoma (RRID:CVCL_1628), OVCAR-8 ovarian carcinoma (RRID:CVCL_1629), , MCF-7 breast carcinoma (CRL-12584, RRID:CVCL_0031), MDA-MB-231 breast carcinoma (CRL-12532, RRID:CVCL_0062), NCI-H1876 small cell lung carcinoma (CRL-5902, RRID:CVCL_1503), NCI-H510A small cell lung carcinoma (HTB-184, RRID:CVCL_1565), NCI-H1417 (CRL-5869, RRID:CVCL_1469), and NCI-H196 small cell lung carcinoma (CRL-5823, RRID:CVCL_1509). Dr. Peter Houghton (Greehey Children's Cancer Research Institute, University of Texas Health Science Center, San Antonio, TX) provided Rh-18 rhabdomyosarcoma (RRID:CVCL_1659). Pooled donor human umbilical vein endothelial cells (HUVEC, Lonza, cat. CC-2519) and human mesenchymal stem cells (hMSC, Lonza, cat. PT-2501) were purchased from Lonza (Walkersville, MD).
Cell Culture. […]

[1] = second compound 0.03 µM, first compound 0.00316 µM
[2] = second compound 0.03 µM, first compound 0.01 µM
[3] = second compound 0.03 µM, first compound 0.0316 µM
[4] = second compound 0.03 µM, first compound 0.1 µM
[5] = second compound 0.0949 µM, first compound 0.00316 µM
[6] = second compound 0.0949 µM, first compound 0.01 µM
[7] = second compound 0.0949 µM, first compound 0.0316 µM
[8] = second compound 0.0949 µM, first compound 0.1 µM
[9] = second compound 0.3 µM, first compound 0.00316 µM
[10] = second compound 0.3 µM, first compound 0.01 µM
[11] = second compound 0.3 µM, first compound 0.0316 µM
[12] = second compound 0.3 µM, first compound 0.1 µM
[13] = second compound 0.949 µM, first compound 0.00316 µM
[14] = second compound 0.949 µM, first compound 0.01 µM
[15] = second compound 0.949 µM, first compound 0.0316 µM
[16] = second compound 0.949 µM, first compound 0.1 µM
[17] = second compound 3 µM, first compound 0.00316 µM
[18] = second compound 3 µM, first compound 0.01 µM
[19] = second compound 3 µM, first compound 0.0316 µM
[20] = second compound 3 µM, first compound 0.1 µM
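Note: spheroids exposed to compounds for seven days before readout.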

CCN1CCN(Cc2ccc(Nc3ncc(F)c(-c4cc(F)c5nc(C)n(C(C)C)c5c4)n3)nc2)CC1 + CCN1C(C(=O)NC23CCC(C(=O)O)(CC2)CC3)C(c2cccc(Cl)c2F)C2(C(=O)Nc3cc(Cl)ccc32)C12CCCCC2 was tested, and the IC50 (second compound 0.03 µM) was > 1000 nM, the IC50 (second compound 0.0949 µM) was > 1000 nM and the IC50 (second compound 0.3 µM) was > 1000 nM. The IC50 (second compound 0.949 µM) was > 1000 nM, the IC50 (second compound 3 µM) was > 1000 nM and the viability, T/C [1] was 103%. It also gave a viability, T/C [2] of 97.3%, a viability, T/C [3] of 112% and a viability, T/C [4] of 127%. It also gave a viability, T/C (second compound 0.03 µM, first compound 0.316 µM) of 108%, a viability, T/C (second compound 0.03 µM, first compound 1 µM) of 133% and a viability, T/C [5] of 89.3%. For the same compound, the viability, T/C [6] was 116%, the viability, T/C [7] was 115% and the viability, T/C [8] was 109%. For the same compound, the viability, T/C (second compound 0.0949 µM, first compound 0.316 µM) was 138%, the viability, T/C (second compound 0.0949 µM, first compound 1 µM) was 116% and the viability, T/C [9] was 87%. For the same compound, the viability, T/C [10] was 103%, the viability, T/C [11] was 124% and the viability, T/C [12] was 113%. It also gave a viability, T/C (second compound 0.3 µM, first compound 0.316 µM) of 124%, a viability, T/C (second compound 0.3 µM, first compound 1 µM) of 127% and a viability, T/C [13] of 98.7%. It also gave a viability, T/C [14] of 114%, a viability, T/C [15] of 122% and a viability, T/C [16] of 86.8%. The viability, T/C (second compound 0.949 µM, first compound 0.316 µM) was 129%, the viability, T/C (second compound 0.949 µM, first compound 1 µM) was 137% and the viability, T/C [17] was 107%. For the same compound, the viability, T/C [18] was 109%, the viability, T/C [19] was 98.6% and the viability, T/C [20] was 121%. It also gave a viability, T/C (second compound 3 µM, first compound 0.316 µM) of 126% and a viability, T/C (second compound 3 µM, first compound 1 µM) of 113%.

NC(=O)C(=Cn1cnc(-c2cc(C(F)(F)F)cc(C(F)(F)F)c2)n1)c1cncnc1 + CCN1C(C(=O)NC23CCC(C(=O)O)(CC2)CC3)C(c2cccc(Cl)c2F)C2(C(=O)Nc3cc(Cl)ccc32)C12CCCCC2 showed an IC50 (second compound 0.03 µM) of 4.97 nM, an IC50 (second compound 0.0949 µM) of 3.99 nM and an IC50 (second compound 0.3 µM) of 6.47 nM. The IC50 (second compound 0.949 µM) was 5.41 nM, the IC50 (second compound 3 µM) was 3.15 nM and the viability, T/C (second compound 0.03 µM, first compound 0.000949 µM) was 92%. The viability, T/C (second compound 0.03 µM, first compound 0.003 µM) was 71.4%, the viability, T/C (second compound 0.03 µM, first compound 0.00949 µM) was 22.4% and the viability, T/C (second compound 0.03 µM, first compound 0.03 µM) was 12.8%. For the same compound, the viability, T/C (second compound 0.03 µM, first compound 0.0949 µM) was 7.75%, the viability, T/C (second compound 0.03 µM, first compound 0.3 µM) was 7.18% and the viability, T/C (second compound 0.0949 µM, first compound 0.000949 µM) was 84%. The viability, T/C (second compound 0.0949 µM, first compound 0.003 µM) was 56%, the viability, T/C (second compound 0.0949 µM, first compound 0.00949 µM) was 31.7% and the viability, T/C (second compound 0.0949 µM, first compound 0.03 µM) was 14.7%. The viability, T/C (second compound 0.0949 µM, first compound 0.0949 µM) was 8.83%, the viability, T/C (second compound 0.0949 µM, first compound 0.3 µM) was 5.38% and the viability, T/C (second compound 0.3 µM, first compound 0.000949 µM) was 74.2%. The viability, T/C (second compound 0.3 µM, first compound 0.003 µM) was 75.5%, the viability, T/C (second compound 0.3 µM, first compound 0.00949 µM) was 37.6% and the viability, T/C (second compound 0.3 µM, first compound 0.03 µM) was 13.3%. It also gave a viability, T/C (second compound 0.3 µM, first compound 0.0949 µM) of 7.32%, a viability, T/C (second compound 0.3 µM, first compound 0.3 µM) of 4.64% and a viability, T/C (second compound 0.949 µM, first compound 0.000949 µM) of 83.9%. For the same compound, the viability, T/C (second compound 0.949 µM, first compound 0.003 µM) was 66.7%, the viability, T/C (second compound 0.949 µM, first compound 0.00949 µM) was 34.4% and the viability, T/C (second compound 0.949 µM, first compound 0.03 µM) was 11.9%. The viability, T/C (second compound 0.949 µM, first compound 0.0949 µM) was 8.43%, the viability, T/C (second compound 0.949 µM, first compound 0.3 µM) was 5.55% and the viability, T/C (second compound 3 µM, first compound 0.000949 µM) was 72.8%. It also gave a viability, T/C (second compound 3 µM, first compound 0.003 µM) of 49.2%, a viability, T/C (second compound 3 µM, first compound 0.00949 µM) of 32.9% and a viability, T/C (second compound 3 µM, first compound 0.03 µM) of 16%. The viability, T/C (second compound 3 µM, first compound 0.0949 µM) was 5.81% and the viability, T/C (second compound 3 µM, first compound 0.3 µM) was 6.67%.

For NC1CCC(NC2CC2c2ccccc2)CC1 (stereo not given) + CCN1C(C(=O)NC23CCC(C(=O)O)(CC2)CC3)C(c2cccc(Cl)c2F)C2(C(=O)Nc3cc(Cl)ccc32)C12CCCCC2, the IC50 (second compound 0.03 µM) was > 100 nM, the IC50 (second compound 0.0949 µM) was > 100 nM and the IC50 (second compound 0.3 µM) was > 100 nM. For the same compound, the IC50 (second compound 0.949 µM) was > 100 nM, the IC50 (second compound 3 µM) was > 100 nM and the viability, T/C (second compound 0.03 µM, first compound 0.000316 µM) was 93.2%. It also gave a viability, T/C (second compound 0.03 µM, first compound 0.001 µM) of 67.1%, a viability, T/C [1] of 129% and a viability, T/C [2] of 77.7%. For the same compound, the viability, T/C [3] was 87%, the viability, T/C [4] was 65.3% and the viability, T/C (second compound 0.0949 µM, first compound 0.000316 µM) was 90%. It also gave a viability, T/C (second compound 0.0949 µM, first compound 0.001 µM) of 100%, a viability, T/C [5] of 93.2% and a viability, T/C [6] of 96.4%. The viability, T/C [7] was 85.1%, the viability, T/C [8] was 68.8% and the viability, T/C (second compound 0.3 µM, first compound 0.000316 µM) was 110%. For the same compound, the viability, T/C (second compound 0.3 µM, first compound 0.001 µM) was 105%, the viability, T/C [9] was 112% and the viability, T/C [10] was 87.3%. It also gave a viability, T/C [11] of 95.1%, a viability, T/C [12] of 112% and a viability, T/C (second compound 0.949 µM, first compound 0.000316 µM) of 108%. For the same compound, the viability, T/C (second compound 0.949 µM, first compound 0.001 µM) was 103%, the viability, T/C [13] was 92% and the viability, T/C [14] was 98.5%. The viability, T/C [15] was 78.3%, the viability, T/C [16] was 88.5% and the viability, T/C (second compound 3 µM, first compound 0.000316 µM) was 92.2%. It also gave a viability, T/C (second compound 3 µM, first compound 0.001 µM) of 94%, a viability, T/C [17] of 90.2% and a viability, T/C [18] of 61.6%. It also gave a viability, T/C [19] of 86.6% and a viability, T/C [20] of 88.5%.
